# Laboratory results reported in US20250313535A1, “ALPHA 4 BETA 7 INTEGRIN MODULATORS AND USES THEREOF” (DICE MOLECULES SV, INC., priority 2022, published 2025).
# Molecular target: α4β7 integrin (Homo sapiens (Human), UniProt P13612+P26010)
# Assay: Integrin Adhesion Assay: Protocol 1 (MAdCAM-coated plate, RPMI-8866 cells, CellTiter GLO readout)
# Type: cell-based
# Conditions: not given
# Protocol: α4β7 and α4β1 inhibition was evaluated in vitro using at least one of the following procedures:
# Integrin Adhesion Assay: Protocol 1
# MAdCAM (R&D Systems, 0.1 ug) was diluted in 50 μL PBS, added to each well of an opaque ELISA plate (Thermo), and incubated overnight at 4° C. Coated plates were washed once with PBS and then blocked with 200 μL of assay buffer (10 mM HEPES, 150 mM NaCl, 1 mM MnCl2, 0.1 mM CaCl2), 1% BSA) for 1 hour at 37° C. and 5% CO2. After incubation, buffer was aspirated from the plates and 50 μL of fresh assay buffer is added. Compounds were added by a compouns dispenser (Tecan) and DMSO concentration was normalized to 1% across each plate. 50 μL of RPMI-8866 cells (2×10^6 per mL) were added to each well and the plates were incubated for 1 hour at 37° C. and 5% CO2. After incubation, plates were allowed to cool to RT for 10 minutes before being washed four times in assay buffer by an automated plate washer (BioTek). After washing, 100 μL of a 1:1 mixture of assay buffer and CellTiter GLO 2.0 reagent (Promega) were added to each well. Plates were mixed for 2 minutes at 1000 rpm and then allowed to incubate an additional 10 minutes before reading out luminescence on a Tecan Spark plate reader. Raw data was converted to percent inhibition based on DMSO only and control compound wells, and curves were analyzed by 4-parameter fit within Dotmatics software.
# Sequence of α4β7 integrin (P13612 34-1032): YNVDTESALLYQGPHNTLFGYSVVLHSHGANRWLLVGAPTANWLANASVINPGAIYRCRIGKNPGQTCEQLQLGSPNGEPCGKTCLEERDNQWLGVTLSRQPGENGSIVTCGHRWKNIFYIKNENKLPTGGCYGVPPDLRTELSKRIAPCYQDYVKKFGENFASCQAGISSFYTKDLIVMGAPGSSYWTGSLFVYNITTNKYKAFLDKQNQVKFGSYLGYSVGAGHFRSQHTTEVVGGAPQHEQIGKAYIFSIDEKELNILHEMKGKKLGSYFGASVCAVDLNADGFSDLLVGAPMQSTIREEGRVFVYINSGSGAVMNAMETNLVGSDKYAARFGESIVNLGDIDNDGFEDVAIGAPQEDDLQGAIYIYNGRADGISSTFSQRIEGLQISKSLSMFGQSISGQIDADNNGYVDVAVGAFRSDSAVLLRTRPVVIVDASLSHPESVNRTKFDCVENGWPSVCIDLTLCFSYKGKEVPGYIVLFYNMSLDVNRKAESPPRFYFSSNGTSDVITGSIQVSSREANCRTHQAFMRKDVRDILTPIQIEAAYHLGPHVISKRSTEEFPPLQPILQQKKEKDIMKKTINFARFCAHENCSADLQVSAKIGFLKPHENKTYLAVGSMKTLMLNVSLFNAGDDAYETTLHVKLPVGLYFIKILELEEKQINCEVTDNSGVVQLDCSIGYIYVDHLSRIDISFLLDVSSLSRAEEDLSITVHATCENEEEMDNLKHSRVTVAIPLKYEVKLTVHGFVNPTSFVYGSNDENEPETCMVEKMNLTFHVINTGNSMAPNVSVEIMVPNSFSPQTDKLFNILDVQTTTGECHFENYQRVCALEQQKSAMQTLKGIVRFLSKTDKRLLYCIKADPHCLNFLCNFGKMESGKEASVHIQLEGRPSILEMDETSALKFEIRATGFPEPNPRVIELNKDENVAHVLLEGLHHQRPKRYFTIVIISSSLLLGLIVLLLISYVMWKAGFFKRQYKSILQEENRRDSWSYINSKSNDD
# Sequence of α4β7 integrin (P26010 20-798): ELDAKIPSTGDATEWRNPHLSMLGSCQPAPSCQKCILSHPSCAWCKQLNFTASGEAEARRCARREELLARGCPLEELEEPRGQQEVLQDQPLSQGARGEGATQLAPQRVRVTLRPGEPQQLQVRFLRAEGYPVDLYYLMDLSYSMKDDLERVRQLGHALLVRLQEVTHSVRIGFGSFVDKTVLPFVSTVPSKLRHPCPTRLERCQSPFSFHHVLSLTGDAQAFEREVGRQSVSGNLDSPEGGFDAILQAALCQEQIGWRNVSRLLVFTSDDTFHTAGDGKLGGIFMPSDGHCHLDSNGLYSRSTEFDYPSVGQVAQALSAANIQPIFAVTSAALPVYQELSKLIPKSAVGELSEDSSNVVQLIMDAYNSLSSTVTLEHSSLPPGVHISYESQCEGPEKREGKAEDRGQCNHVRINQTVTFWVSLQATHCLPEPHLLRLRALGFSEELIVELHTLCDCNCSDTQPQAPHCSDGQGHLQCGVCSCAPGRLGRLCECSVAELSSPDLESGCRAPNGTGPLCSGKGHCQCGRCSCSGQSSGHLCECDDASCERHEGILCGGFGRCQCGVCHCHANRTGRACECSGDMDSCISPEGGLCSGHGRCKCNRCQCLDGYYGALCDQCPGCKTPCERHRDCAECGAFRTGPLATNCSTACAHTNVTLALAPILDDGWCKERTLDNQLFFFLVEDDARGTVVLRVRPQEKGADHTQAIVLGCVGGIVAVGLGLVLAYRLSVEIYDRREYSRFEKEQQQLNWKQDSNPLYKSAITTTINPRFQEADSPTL
row,IC50,SMILES
1,100 to 1000 nM,Cn1c(=O)c(-c2cccc3c(C[C@H](NC(=O)c4c(F)cc5[nH]c(CC(F)(F)F)nc5c4F)C(=O)O)cccc23)c(C(F)(F)F)c2ccccc21 [Compound 320]
2,> 1000 nM,Cn1c(=O)c(-c2cccc3c(C[C@H](NC(=O)c4c(F)ccc(C5CCCCC5)c4F)C(=O)O)cccc23)c(C(F)(F)F)c2ccccc21 [Compound 377]
3,100 to 1000 nM,CO[C@@H]1C[C@@H](c2cc(F)c(C(=O)N[C@@H](Cc3cccc4c(-c5c(C(F)(F)F)c6ccccc6n(C)c5=O)cccc34)C(=O)O)c(F)c2)N(C)C1 [Compound 464]
4,100 to 1000 nM,Cn1c(=O)c(-c2cccc3c(C[C@H](NC(=O)c4c(F)cc(N5CCC[C@@H]5C(F)(F)F)cc4F)C(=O)O)cccc23)c(C(F)(F)F)c2ccccc21 [Compound 319]
5,> 1000 nM,Cn1c(=O)c(-c2cccc3c(C[C@H](NC(=O)c4c(F)cc(OC(F)(F)F)cc4F)C(=O)O)cccc23)c(C(F)(F)F)c2ccccc21 [Compound 370]
6,100 to 1000 nM,CO[C@@H]1C[C@H](c2cc(F)c(C(=O)N[C@@H](Cc3cccc4c(-c5c(C(F)(F)F)c6ccccc6n(C)c5=O)cccc34)C(=O)O)c(F)c2)N(C)C1 [Compound 465]
7,> 1000 nM,Cn1c(=O)c(-c2cccc3c(C[C@H](NC(=O)c4c(F)cc(N5CCOc6ccc(C(F)(F)F)cc65)cc4F)C(=O)O)cccc23)c(C(F)(F)F)c2ccccc21 [Compound 343]
8,> 1000 nM,Cc1cccc(C)c1-c1cc(F)c(C(=O)N[C@@H](Cc2cccc3c(-c4c(C(F)(F)F)c5ccccc5n(C)c4=O)cccc23)C(=O)O)c(F)c1 [Compound 304]
9,> 1000 nM,COCC1CCN(c2cc(F)c(C(=O)N[C@@H](Cc3cccc4c(-c5c(C(F)(F)F)c6ccccc6n(C)c5=O)cccc34)C(=O)O)c(F)c2)C1 (stereo partly shown) [Compound 463]
10,100 to 1000 nM,Cn1c(=O)c(-c2cccc3c(C[C@H](NC(=O)c4c(F)cc5cn(CC(F)(F)F)nc5c4F)C(=O)O)cccc23)c(C(F)(F)F)c2ccccc21 [Compound 348]
11,> 1000 nM,Cn1c(=O)c(-c2cccc3c(C[C@H](NC(=O)c4c(F)cc(N5CCOCC5c5ccc(C(F)(F)F)cc5)cc4F)C(=O)O)cccc23)c(C(F)(F)F)c2ccccc21 (stereo partly shown) [Compound 344]
12,> 1000 nM,Cn1c(=O)c(-c2cccc3c(C[C@H](NC(=O)c4c(F)cc(-c5ccc(F)c(Cl)c5)cc4F)C(=O)O)cccc23)c(C(F)(F)F)c2ccccc21 [Compound 345]

# The remaining lines, values behind:
row,SMILES,IC50
1,Cn1ccc(C(F)(F)F)c(-c2cccc3c(C[C@H](NC(=O)c4c(F)cc(N5CC(F)(F)OC(F)(F)C5)cc4F)C(=O)O)cccc23)c1=O [Compound 441],10 to 100 nM
2,Cn1c(=O)c(-c2cccc3c(C[C@H](NC(=O)c4cc5ccc(N6CC(F)C6)cn5n4)C(=O)O)cccc23)c(C(F)(F)F)c2ccccc21 [Compound 429],> 1000 nM
3,Cn1c(=O)c(-c2cccc3c(C[C@H](Nc4nccc(N5CCOC[C@@H]5C(F)(F)F)c4F)C(=O)O)cccc23)c(C(F)(F)F)c2ccccc21 [Compound 326],> 1000 nM
4,Cn1c(=O)c(-c2cccc3c(C[C@H](NC(=O)C45CC(N6CCC(F)(F)CC6)(C4)C5)C(=O)O)cccc23)c(C(F)(F)F)c2ccccc21 [Compound 391],> 1000 nM
5,Cc1cccc(C)c1-c1nc(C(=O)N[C@@H](Cc2cccc3c(-c4c(C(F)(F)F)c5ccccc5n(C)c4=O)cccc23)C(=O)O)c(C)n1C [Compound 349],> 1000 nM
6,Cn1c(=O)c(-c2cccc3c(CC(Nc4nccc5cccc(F)c45)C(=O)O)cccc23)c(C(F)(F)F)c2ccccc21 (stereo not shown) [Compound 437],> 1000 nM
7,Cc1cccc(C)c1-c1cc(C(=O)N[C@@H](Cc2cccc3c(-c4c(C(F)(F)F)c5ccccc5n(C)c4=O)cccc23)C(=O)O)c(F)c(C(F)(F)F)c1 [Compound 303],> 1000 nM

# Same assay, conditions: integrin adhesion assay; determined by at least one of the assays described (protocol not specified)
row,IC50,SMILES
1,10 to 100 nM,C=CCc1cn(C)c(=O)n(-c2cccc3c(C[C@H](NC(=O)c4c(F)cccc4F)C(=O)O)cccc23)c1=O [Compound 136]
2,10 to 100 nM,Cn1ccc(=O)n(-c2cccc3c(C[C@H](NC(=O)C4(C(F)(F)F)CCCCC4)C(=O)O)cccc23)c1=O [Compound 13]
3,10 to 100 nM,Cn1ccc(C(F)(F)F)c(-c2cncc3c(C[C@H](NC(=O)c4c(F)cccc4F)C(=O)O)cccc23)c1=O [Compound 211]
